Reference: PubChem BioAssay (NCI)
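96-well plates; 48 h exposure; 5 concentrations. Endpoints by linear interpolation between flanking doses. Not reached: highest tested concentration assigned. GI50 is the concentration that inhibits growth by half. TGI denotes the concentration required for complete inhibition of growth.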

Assays:
Assay in all cases: growth of human tumour cells (NCI), 48 h
[1] = tested on: SF-268 CNS
[2] = tested on: SNB-75 CNS
[3] = tested on: OVCAR-8 ovarian
[4] = tested on: RPMI-8226 leukemia
[5] = tested on: SR leukemia
[6] = tested on: SK-MEL-2 melanoma
[7] = tested on: HOP-62 NSCLC
[8] = tested on: U251 CNS
[9] = tested on: HL-60(TB) leukemia
[10] = tested on: NCI-H226 lung
[11] = tested on: RXF 393 renal
[12] = tested on: CAKI-1 renal
[13] = tested on: MDA-MB-468 breast
[14] = tested on: IGROV1 ovarian
[15] = tested on: OVCAR-5 ovarian
[16] = tested on: LOX IMVI melanoma
[17] = tested on: KM12 colon
[18] = tested on: HS 578T breast
[19] = tested on: MDA-MB-231 breast
[20] = tested on: M14 melanoma
[21] = tested on: MOLT-4 leukemia
[22] = tested on: MCF7 breast
[23] = tested on: PC-3 prostate
[24] = tested on: SW-620 colon
[25] = tested on: OVCAR-4 ovarian
[26] = tested on: 786-0 renal
[27] = tested on: DU-145 prostate
[28] = tested on: UO-31 renal
[29] = tested on: CCRF-CEM leukemia
[30] = tested on: HCC-2998 colon
[31] = tested on: NCI/ADR-RES ovarian
[32] = tested on: TK-10 renal
[33] = tested on: A498 renal
[34] = tested on: SF-295 CNS
[35] = tested on: OVCAR-3 ovarian
[36] = tested on: UACC-257 melanoma
[37] = tested on: NCI-H460 lung
[38] = tested on: SF-539 CNS
[39] = tested on: EKVX NSCLC
[40] = tested on: SK-MEL-28 melanoma
[41] = tested on: UACC-62 melanoma
[42] = tested on: MDA-MB-435
[43] = tested on: BT-549 breast
[44] = tested on: SN12C renal
[45] = tested on: K-562 leukemia
[46] = tested on: HCT-15 colon
[47] = tested on: SNB-19 CNS
[48] = tested on: HOP-92 NSCLC
[49] = tested on: ACHN renal
[50] = tested on: MALME-3M melanoma
[51] = tested on: SK-MEL-5 melanoma
[52] = tested on: COLO 205 colon
[53] = tested on: T-47D breast
[54] = tested on: SK-OV-3 ovarian
[55] = tested on: NCI-H522 lung
[56] = tested on: NCI-H23 lung
[57] = tested on: HT29 colon
[58] = tested on: A549 NSCLC
[59] = tested on: HCT-116 colon

`COc1ccc2[nH]c(O)c(N=NC(=O)COc3ccc(NC(=O)Nc4ccc(Cl)c(Cl)c4)cc3)c2c1` gave a GI50 [1] of 1.64 µM, a TGI [1] of 10.2 µM and a GI50 [2] of 1.61 µM. It also gave a TGI [2] of 3.98 µM, a GI50 [3] of 2.33 µM and a TGI [3] of 15.7 µM. For the same molecule, the GI50 [4] was 2.71 µM, the TGI [4] was greater than 100 µM and the GI50 [5] was 1.04 µM. The TGI [5] was 18.4 µM, the GI50 [6] was 10.4 µM and the TGI [6] was 23 µM. The GI50 [7] was 2.88 µM, the TGI [7] was 14.1 µM and the GI50 [8] was 3.37 µM. It also gave a TGI [8] of 14.9 µM, a GI50 [9] of 6.71 µM and a TGI [9] of 25.1 µM. It also gave a GI50 [10] of 1.07 µM, a TGI [10] of 3.45 µM and a GI50 [11] of 1.05 µM. The TGI [11] was 2.9 µM, the GI50 [12] was 2.39 µM and the TGI [12] was 11 µM. The GI50 [13] was 1.17 µM, the TGI [13] was 3.01 µM and the GI50 [14] was 1.91 µM. The TGI [14] was 6.35 µM, the GI50 [15] was 1.53 µM and the TGI [15] was 6 µM. For the same molecule, the GI50 [16] was 0.309 µM, the TGI [16] was 1.03 µM and the GI50 [17] was 1.29 µM. The TGI [17] was 7.64 µM, the GI50 [18] was 1.87 µM and the TGI [18] was 5.52 µM. The GI50 [19] was 1.46 µM, the TGI [19] was 3.55 µM and the GI50 [20] was 0.992 µM. It also gave a TGI [20] of 4.57 µM, a GI50 [21] of 1.61 µM and a TGI [21] of 17.9 µM. The GI50 [22] was 0.488 µM, the TGI [22] was 6.05 µM and the GI50 [23] was 1.42 µM. For the same molecule, the TGI [23] was 4.72 µM, the GI50 [24] was 0.441 µM and the TGI [24] was 1.37 µM. For the same molecule, the GI50 [25] was 0.691 µM, the TGI [25] was 2.74 µM and the GI50 [26] was 1.07 µM. For the same molecule, the TGI [26] was 2.75 µM, the GI50 [27] was 0.493 µM and the TGI [27] was 1.91 µM. It also gave a GI50 [28] of 31.3 µM, a TGI [28] greater than 100 µM and a GI50 [29] of 0.822 µM. It also gave a TGI [29] of 19.1 µM, a GI50 [30] of 2.97 µM and a TGI [30] of 15.6 µM. For the same molecule, the GI50 [31] was 25.4 µM, the TGI [31] was greater than 100 µM and the GI50 [32] was 3.79 µM. For the same molecule, the TGI [32] was 14.6 µM, the GI50 [33] was 1.84 µM and the TGI [33] was 5.4 µM. It also gave a GI50 [34] of 1.91 µM, a TGI [34] of 5.22 µM and a GI50 [35] of 0.696 µM. The TGI [35] was 2.28 µM, the GI50 [36] was 3.36 µM and the TGI [36] was 15.9 µM. The GI50 [37] was 0.437 µM, the TGI [37] was 1.49 µM and the GI50 [38] was 0.767 µM. It also gave a TGI [38] of 2.09 µM, a GI50 [39] of 3.89 µM and a TGI [39] of 25.9 µM. For the same molecule, the GI50 [40] was 1.63 µM, the TGI [40] was 4.05 µM and the GI50 [41] was 2.86 µM. For the same molecule, the TGI [41] was 12.7 µM, the GI50 [42] was 0.605 µM and the TGI [42] was 2.36 µM. It also gave a GI50 [43] of 2.01 µM, a TGI [43] of 4.47 µM and a GI50 [44] of 1.1 µM. It also gave a TGI [44] of 3.45 µM, a GI50 [45] of 0.575 µM and a TGI [45] of 19.7 µM. It also gave a GI50 [46] of 31.6 µM, a TGI [46] greater than 100 µM and a GI50 [47] of 3.33 µM. It also gave a TGI [47] of 14.2 µM, a GI50 [48] of 0.615 µM and a TGI [48] of 2.63 µM. The GI50 [49] was 2.18 µM, the TGI [49] was 13.2 µM and the GI50 [50] was 0.452 µM. For the same molecule, the TGI [50] was 1.68 µM, the GI50 [51] was 1.99 µM and the TGI [51] was 5.36 µM. The GI50 [52] was 1.12 µM, the TGI [52] was 4.21 µM and the GI50 [53] was 1.46 µM. The TGI [53] was 3.26 µM, the GI50 [54] was 5.1 µM and the TGI [54] was 17.5 µM.

Molecule `CC(=O)Nc1ccc(-n2cnc3cc(-c4ccc(O)cc4)ccc32)cc1C(F)(F)F` has a GI50 [1] of 7.57 µM, a TGI [1] of 84.4 µM and a GI50 [55] of 1.6 µM. For the same molecule, the TGI [55] was 4.73 µM, the GI50 [3] was 6.6 µM and the TGI [3] was 68.1 µM. It also gave a GI50 [4] of 4.73 µM, a TGI [4] of 27.6 µM and a GI50 [5] of 2.58 µM. It also gave a TGI [5] of 12.5 µM, a GI50 [6] of 2.82 µM and a TGI [6] of 9.73 µM. The GI50 [7] was 8.41 µM, the TGI [7] was 30 µM and the GI50 [8] was 4.99 µM. It also gave a TGI [8] of 32.4 µM, a GI50 [9] of 2.9 µM and a TGI [9] of 13.5 µM. For the same molecule, the GI50 [10] was 13.2 µM, the TGI [10] was 58.6 µM and the GI50 [11] was 4.31 µM. For the same molecule, the TGI [11] was 18.5 µM, the GI50 [12] was 8.34 µM and the TGI [12] was 42 µM. It also gave a GI50 [13] of 0.225 µM, a TGI [13] of 10.8 µM and a GI50 [14] of 14.5 µM. It also gave a TGI [14] of 87 µM, a GI50 [15] of 12.2 µM and a TGI [15] of 34.4 µM. It also gave a GI50 [16] of 5.71 µM, a TGI [16] of 19.1 µM and a GI50 [17] of 3.93 µM. The TGI [17] was 50.7 µM, the GI50 [56] was 6.2 µM and the TGI [56] was 33.1 µM. For the same molecule, the GI50 [18] was 15.3 µM, the TGI [18] was 98.7 µM and the GI50 [19] was 10 µM. The TGI [19] was 38.2 µM, the GI50 [20] was 4.25 µM and the TGI [20] was 30.6 µM. The GI50 [21] was 4.3 µM, the TGI [21] was greater than 100 µM and the GI50 [22] was 4.13 µM. It also gave a TGI [22] of 48.5 µM, a GI50 [23] of 8.15 µM and a TGI [23] of 39.5 µM. It also gave a GI50 [57] of 6.03 µM, a TGI [57] greater than 100 µM and a GI50 [24] of 6.29 µM. For the same molecule, the TGI [24] was greater than 100 µM, the GI50 [25] was 24.1 µM and the TGI [25] was greater than 100 µM. The GI50 [26] was 8.92 µM, the TGI [26] was 39.1 µM and the GI50 [27] was 12.2 µM. It also gave a TGI [27] of 46.9 µM, a GI50 [28] of 4.84 µM and a TGI [28] of 21.1 µM. For the same molecule, the GI50 [29] was 6.65 µM, the TGI [29] was greater than 100 µM and the GI50 [30] was 5.31 µM. The TGI [30] was 26.8 µM, the GI50 [31] was 2.25 µM and the TGI [31] was 7.05 µM. For the same molecule, the GI50 [32] was 14.8 µM, the TGI [32] was 34.3 µM and the GI50 [33] was 25.6 µM. The TGI [33] was 80.5 µM, the GI50 [34] was 5.47 µM and the TGI [34] was 27.5 µM. It also gave a GI50 [35] of 15.7 µM, a TGI [35] greater than 100 µM and a GI50 [36] of 10.6 µM. For the same molecule, the TGI [36] was 39.3 µM, the GI50 [37] was 4.81 µM and the TGI [37] was greater than 100 µM. For the same molecule, the GI50 [58] was 5.34 µM, the TGI [58] was greater than 100 µM and the GI50 [38] was 6.25 µM. It also gave a TGI [38] of 46.7 µM, a GI50 [39] of 9.92 µM and a TGI [39] of 33.8 µM. It also gave a GI50 [40] of 6.4 µM, a TGI [40] of 35.3 µM and a GI50 [41] of 3.82 µM. It also gave a TGI [41] of 20.6 µM, a GI50 [42] of 2.21 µM and a TGI [42] of 6.17 µM. For the same molecule, the GI50 [43] was 4.76 µM, the TGI [43] was 20.3 µM and the GI50 [44] was 4.26 µM. The TGI [44] was 34.5 µM, the GI50 [45] was 4.53 µM and the TGI [45] was greater than 100 µM. The GI50 [46] was 4.75 µM, the TGI [46] was greater than 100 µM and the GI50 [47] was 14 µM. For the same molecule, the TGI [47] was greater than 100 µM, the GI50 [48] was 11.6 µM and the TGI [48] was 29.3 µM. It also gave a GI50 [49] of 6.62 µM, a TGI [49] of 43.7 µM and a GI50 [50] of 6.92 µM. For the same molecule, the TGI [50] was 51.5 µM, the GI50 [51] was 5.54 µM and the TGI [51] was 32.9 µM. The GI50 [52] was 11.2 µM, the TGI [52] was 42.3 µM and the GI50 [53] was 4.73 µM. It also gave a TGI [53] of 43.5 µM, a GI50 [54] of 17 µM and a TGI [54] of 61.1 µM. The GI50 [59] was 6.86 µM and the TGI [59] was greater than 100 µM.
